Data as given in US20250326794A1, “ANTI-CANCER LEUCINE-RICH PEPTIDES AND USES THEREOF” (KING'S COLLEGE LONDON, priority 2019, published 2025).
Like-named read-outs stand apart in the source and are kept apart here.

Tests used:
[1] = system: U2OS (human bone osteosarcoma); conditions: 72 h
Procedure, shortened: (§1)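 MTT viability after 72 h exposure to 0–100 μM compound (final DMSO 0.5% or 0%), 5×10^3 cells/well; HMLER lines and MCF-10A in MEGM, U2OS in DMEM with 10% FBS. A550 normalized to matching vehicle controls; IC50 interpolated from dose–response curves.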

[2] = system: HMLER (human breast cancer bulk cell); experiment: cells; conditions: 72 h
Procedure, shortened: as §1

[3] = system: HMLER-shEcad (human breast cancer stem cell); experiment: cells
Procedure, shortened: as §1

[4] = system: MCF-10A (human breast epithelial cell); experiment: cells; conditions: 72 h
Procedure, shortened: as §1

[5] = system: HEK293T (human embryonic kidney cell); experiment: cells; conditions: 72 h
[6] = ANTS/DPX liposome leakage assay, POPC vesicles; type: biochemical; conditions: 0.5 mM vesicles; for Peptide Concentration-induced 50% ANTS/DPX leakage at pH 4.8, POPC Vesicle: pH 4.8, lipid per peptide; for Peptide Concentration-induced 50% ANTS/DPX leakage at pH 7.4, POPC Vesicle: pH 7.4, lipid per peptide
Procedure, shortened: (§2)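 Peptide titrations (0–20 μM) were incubated 3 h with 0.5 mM ANTS/DPX-loaded 100 nm vesicles, either POPC alone or 3:1 POPC/POPG, at pH 7.4 or pH 4.8 in PBS. ANTS fluorescence (350/510 nm) normalized to Triton-lysed vesicles; 50%-leakage values given as lipid:peptide ratio.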

[7] = Tryptophan fluorescent binding assay, POPC vesicles; conditions: 50 μM peptide, PBS pH 7.4, lipid per peptide
Procedure, shortened: (§3)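 Binding followed by tryptophan emission (300-450 nm, 280 nm excitation, 3 scans averaged) after 60 min incubation of 50 μM peptide with 0-5000 μM extruded 100 nm POPC or 3:1 POPC/POPG vesicles in PBS pH 7.4. Value: lipid-to-peptide ratio at half-maximal binding.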

[8] = ANTS/DPX liposome leakage assay, 3POPC/1POPG vesicles; type: biochemical; conditions: for Peptide Concentration-induced 50% ANTS/DPX leakage at pH 4.8, 3POPC/1POPG Vesicle / Peptide Concentration-induced 50% ANTS/DPX leakage at pH 7.4, 3POPC/1POPG Vesicle: 0.5 mM vesicles; for Peptide Concentration-induced 50% ANTS/DPX leakage at pH 4.8, 3POPC/1POPG Vesicle: pH 4.8, lipid per peptide; for Peptide Concentration-induced 50% ANTS/DPX leakage at pH 7.4, 3POPC/1POPG Vesicle: pH 7.4, lipid per peptide; for liposome leakage activity from anionic vesicle at pH 4.8 (in words): anionic versus zwitterionic vesicle
Procedure, shortened: as §2

[9] = Tryptophan fluorescent binding assay, 3POPC/1POPG vesicles; conditions: 50 μM peptide, PBS pH 7.4, lipid per peptide
Procedure, shortened: as §3

[10] = system: HMLER-shEcad mammospheres; experiment: Tumoursphere formation and viability assay (TOX8); type: cell-based, human; conditions: for decrease in activity, two-dimensional versus mammospheres: HMLER-shEcad 2D IC50 versus mammosphere IC50
HMLER-shEcad cells = experiment: HMLER-shEcad viability with co-incubated necroptosis/apoptosis inhibitors; type: cell-based, human; conditions: 20 μM necrostatin-1 or 5 μM z-VAD-FMK (FIG. 9C, 9D)

| Compound | IC50 [1] [nM] | IC50 [2] [nM] | IC50 ([3]; 72 h) [nM] | IC50 [4] [nM] | IC50 [5] [nM] | Peptide Concentration-induced 50% ANTS/DPX leakage at pH 4.8, POPC Vesicle [6] [L/P] | Peptide Concentration-induced 50% ANTS/DPX leakage at pH 7.4, POPC Vesicle [6] [L/P] | Lipid Concentration-induced 50% Peptide Binding, POPC Vesicle [7] [L/P] | Peptide Concentration-induced 50% ANTS/DPX leakage at pH 4.8, 3POPC/1POPG Vesicle [8] [L/P] | Peptide Concentration-induced 50% ANTS/DPX leakage at pH 7.4, 3POPC/1POPG Vesicle [8] [L/P] | liposome leakage activity from anionic vesicle at pH 4.8 (in words) [8] | Lipid Concentration-induced 50% Peptide Binding, 3POPC/1POPG Vesicle [9] [L/P] | IC50 ([2]; Homo sapiens, read-out: IC50 HMLER) [nM] | IC50 ([3]; Homo sapiens, 72 h, read-out: IC50 HMLER-shEcad) [nM] | IC50 ([3]; Homo sapiens, read-out: IC50 against two-dimensional HMLER-shEcad) [nM] | IC50 ([4]; Homo sapiens, MCF-10A, read-out: IC50 MCF-10A) [nM] | IC50 ([5]; Homo sapiens, HEK-293T, read-out: IC50 HEK293T) [nM] | decrease in activity, two-dimensional versus mammospheres [10] | IC50 ([10]; Homo sapiens, read-out: IC50 in mammospheres) [nM] | cell viability on co-incubation with necrostatin or z-VAD-FMK (HMLER-shEcad cells) |
| --- | --- | --- | --- | --- | --- | --- | --- | --- | --- | --- | --- | --- | --- | --- | --- | --- | --- | --- | --- | --- |
| CC(C)C[C@H](NC(=O)CN)C(=O)N[C@@H](CC(C)C)C(=O)N[C@@H](CC(=O)O)C(=O)N[C@@H](CC(C)C)C(=O)N[C@@H](CC(C)C)C(=O)N[C@@H](CCC(=O)O)C(=O)N[C@@H](CC(C)C)C(=O)N[C@@H](CC(C)C)C(=O)N[C@@H](CC(C)C)C(=O)N[C@@H](CCCCN)C(=O)N[C@@H](C)C(=O)N[C@@H](C)C(=O)NCC(=O)N[C@@H](Cc1c[nH]c2ccccc12)C(N)=O [DEK] | 19900 ± 2650 | 1140 ± 520 | 700 ± 70 | ≥ 100000 | 6800 ± 850 | 10 | 747 | 1.50 | 469 | 773 | relatively higher liposome leakage activity | 1.67 |  |  |  |  |  |  |  |  |
| CC[C@@H](C(=O)[C@@H](C)[C@@H](O)[C@H](C)[C@@H]1O[C@@H]([C@@H](CC)C(=O)O)CC[C@@H]1C)[C@H]1O[C@]2(C=C[C@@H](O)[C@]3(CC[C@@](C)([C@H]4CC[C@](O)(CC)[C@H](C)O4)O3)O2)[C@H](C)C[C@@H]1C [Salinomycin, salinomycin, reference compound] |  |  |  |  |  |  |  |  |  |  |  |  | 370 ± 80 | 920 ± 280 | 370 ± 0.5 | 9760 ± 2280 | 410 ± 100 | 63 fold | 22000 ± 5000 |  |
| CC(C)C[C@H](NC(=O)CN)C(=O)N[C@@H](CC(C)C)C(=O)N[C@@H](CCC(=O)O)C(=O)N[C@@H](CC(C)C)C(=O)N[C@@H](CC(C)C)C(=O)N[C@@H](CCC(=O)O)C(=O)N[C@@H](CC(C)C)C(=O)N[C@@H](CC(C)C)C(=O)N[C@@H](CC(C)C)C(=O)N[C@@H](CCCCN)C(=O)N[C@@H](C)C(=O)N[C@@H](C)C(=O)NCC(=O)N[C@@H](Cc1c[nH]c2ccccc12)C(N)=O [EEK] |  |  |  |  |  | 39 | 730 | 0.48 | 386 | 657 | relatively higher liposome leakage activity | 4.50 |  |  |  |  |  |  |  | cannot be improved |
| COc1cccc2c1C(=O)c1c(O)c3c(c(O)c1C2=O)C[C@@](O)(C(=O)CO)C[C@@H]3O[C@H]1C[C@H](N)[C@H](O)[C@H](C)O1 [Doxorubicin, doxorubicin, reference compound] |  |  |  |  |  |  |  |  |  |  |  |  |  |  |  |  |  | 1,700 fold |  | can be dramatically improved |
